This note sets out measurements from patent US6956036B1, “6-hydroxy-indazole derivatives for treating glaucoma” (Alcon, Inc., priority 2000, dated 2005).

The target in data set [1] is T1, 5-HT2 receptor (Rattus norvegicus, UniProt P14842).
T1 construct: A7r5 rat vascular smooth muscle cells; endogenous in cells; host or cells: A7r5 rat vascular smooth muscle cells
Kind of data set: 5-HT2 Functional Assay: Phosphoinositide (PI) Turnover Assay. It counts as cell-based. The conditions noted are these: for EC50: [3H]inositol phosphates production in A7r5 rat vascular smooth muscle cells. On the procedure:
5-HT2 Functional Assay: Phosphoinositide (PI) Turnover Assay
The relative agonist activity of serotonergic compounds at the 5-HT2 receptor can be determined in vitro using the ability of the compounds to stimulate the production of [^3H]inositol phosphates in [^3H]myo-inositol-labeled A7r5 rat vascular smooth muscle cells by their ability to activate the enzyme phospholipase C. These cells are grown in culture plates, maintained in a humidified atmosphere of 5% CO2 and 95% air and fed semi-weekly with Dulbecco's modified Eagle medium (DMEM) containing 4.5 g/l glucose and supplemented with 2 mM glutamine, 10 μg/ml gentamicin, and 10% fetal bovine serum. For the purpose of conducting the phosphoinositide (PI) turnover experiments, the A7r5 cells are cultured in 24-well plates as previously [J. Pharmacol. Expt. Ther., 286, 411 (1998)]. Confluent cells are exposed for 24–30 hrs to 1.5 μCi [^3H]-myo-inositol (18.3 Ci/mmol) in 0.5 ml of serum-free medium. Cells are then rinsed once with DMEM/F-12 containing 10 mM LiCl prior to incubation with the test agent (or solvent as the control) in 1.0 ml of the same medium for 1 hr at 37° C., after which the medium is aspirated and 1 ml of cold 0.1 M formic acid added to stop the reaction. The chromatographic separation of [3H]-inositol phosphates ([^3H]-IPs) on an AG-1-X8 column is performed as previously described [J. Pharmacol. Expt. Ther. 286, 411 (1998)] with sequential washes with H2O and 50 mM ammonium formate, followed by elution of the total [^3H]-IPs fraction with 1.2 M ammonium formate containing 0.1 M formic acid. The eluate (4 ml) is collected, mixed with 15 ml scintillation fluid, and the total [^3H]-IPs determined by scintillation counting on a beta-counter. Concentration-response data are analyzed by the sigmoidal fit function of the Origin Scientific Graphics software (Microcal Software, Northampton, Mass.) to determine agonist potency (EC50 value) and efficacy (Emax). Serotonin (5-HT) is used as a positive control (standard) agonist compound and the efficacy of test compounds is compared to that of 5-HT (set at 100%). The concentration of the compound needed to stimulate the production of [^3H]-IPs by 50% of the maximum response is termed the EC50 value.

[2] abbreviates: A7r5 cells, efficacy compared to that of 5-HT (set at 100%).

T1 sequence (P14842 whole entry): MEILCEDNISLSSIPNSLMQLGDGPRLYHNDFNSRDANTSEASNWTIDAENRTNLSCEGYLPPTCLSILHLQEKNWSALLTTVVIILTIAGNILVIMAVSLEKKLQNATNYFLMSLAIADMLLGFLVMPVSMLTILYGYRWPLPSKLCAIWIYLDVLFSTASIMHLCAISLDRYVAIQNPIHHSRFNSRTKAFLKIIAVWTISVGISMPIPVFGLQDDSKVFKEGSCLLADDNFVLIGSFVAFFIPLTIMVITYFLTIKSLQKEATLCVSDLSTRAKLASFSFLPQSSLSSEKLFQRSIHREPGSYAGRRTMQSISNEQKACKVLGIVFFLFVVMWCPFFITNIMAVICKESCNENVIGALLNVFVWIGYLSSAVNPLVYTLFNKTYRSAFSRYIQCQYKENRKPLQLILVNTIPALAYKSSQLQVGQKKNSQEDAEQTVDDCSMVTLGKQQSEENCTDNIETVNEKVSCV

What is called Emax is the size of the effect at its maximum, as opposed to the concentration needed. A word on the EC50: it is the concentration needed to bring the measured effect to its halfway point. In the case of `COc1ccc2c(Cl)nn(CC(C)N)c2c1` (centres unmarked) [Example 5, 2-(3-Chloro-6-methoxy-indazol-1-yl)-1-methyl-ethylamine], the maximal response (Emax) in data set [1] (setting [2]) came out at 64%. Further, in data set [1], the concentration giving a half-maximal response (EC50) was determined as 541 nM.

In data set [1] (setting [2]), `CC(N)Cn1nc(Cl)c2ccc(O)cc21` (centres unmarked) [Example 6, 1-(2-Aminopropyl)-3-chloro-1H-indazol-6-ol] displayed an Emax of 84%. The compound further showed an EC50 in data set [1] of 1050 nM.

As usually defined, the melting point is the temperature of the solid-liquid transition. `Cc1nn(CC(C)N)c2cc(O)ccc12.O=C(O)/C=C/C(=O)O` (centres unmarked) [Example 2, 1-(2-Aminopropyl)-3-methyl-1H-indazol-6-ol Fumarate] came in with a melting point of 166 to 168 °C. The same compound yielded an Emax in data set [1] (setting [2]) of 87%. The 50% effective concentration (EC50) in data set [1] came to 483 nM.

`COc1ccc2c(C)nn(CC(C)N)c2c1.O=C(O)/C=C/C(=O)O` (centres unmarked) [Example 1, 2-(6-Methoxy-3-methyl-indazol-1-yl)-1-methylethylamine Fumarate] returned a melting point of 150 to 152 °C. The compound also displayed an Emax in data set [1] (setting [2]) of 71%. The compound also showed a concentration for a half-maximal effect (EC50) in data set [1] of 578 nM.

As to `CC(N)Cc1c[nH]c2ccc(O)cc12` (stereo not drawn) [α-Methylserotonin, reference compound], the “Efficacy (Emax, %)” value in data set [1] (setting [2]) is 104%.

In data set [1] (setting [2]), `COc1ccc2cnn(CC(C)N)c2c1` (centres unmarked) [Example 4, 2-(6-Methoxy-indazol-1-yl)-1-methyl-ethylamine] gave a maximum response (Emax) of 73%. The EC50 in data set [1] is 243 nM.

For `CC(N)Cn1ncc2ccc(OC(=O)C(C)(C)C)cc21.O=C(O)/C=C/C(=O)O` (centres unmarked), the melting point is 180 to 182 °C.
